Legend:
Assay in all cases: Cysteine liganding, probe competition
Format in all cases: binding
[1] = biological target: T1, NUBP1 Cytosolic Fe—S cluster assembly factor NUBP1 (Homo sapiens, UniProt P53384); conditions: for Liganded: NUBP1 Res# 31, uniprot P53384
T1 construct: Cells were resuspended in cold PBS on ice and sonicated with a probe sonicator to achieve lysis; endogenous in cells
T1 sequence (P53384 1-320): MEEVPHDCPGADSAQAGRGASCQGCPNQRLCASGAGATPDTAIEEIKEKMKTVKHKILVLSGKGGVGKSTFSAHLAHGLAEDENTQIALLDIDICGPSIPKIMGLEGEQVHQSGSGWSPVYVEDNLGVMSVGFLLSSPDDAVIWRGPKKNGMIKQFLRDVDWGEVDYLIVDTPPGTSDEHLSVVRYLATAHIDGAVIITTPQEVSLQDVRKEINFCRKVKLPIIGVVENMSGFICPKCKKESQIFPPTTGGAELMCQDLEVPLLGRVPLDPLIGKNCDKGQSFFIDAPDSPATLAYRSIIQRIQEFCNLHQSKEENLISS
Procedure, shortened: (§1)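 Lysates from probe-sonicated cells in PBS (5 mg/ml proteome) were exposed to compound for 1 hr at 25° C, then labelled with desthiobiotin iodoacetamide probe (10 mM stock) for 1 hr at 25° C. Probe-tagged peptides were streptavidin-enriched after trypsin digestion.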

[2] = biological target: T2, CDK16 Cyclin-dependent kinase 16 (Homo sapiens, UniProt Q00536); conditions: for Liganded: CDK16 Res# 206, uniprot Q00536
T2 construct: 200 μL of lysate containing 5 mg/ml proteome was treated with 2 μL of 100× compound stock; endogenous in cells
Procedure, shortened: as §1

[3] = biological target: T3, FBXO30 F-box only protein 30 (Homo sapiens, UniProt Q8TB52)
T3 construct: Cells were resuspended in cold PBS on ice and sonicated with a probe sonicator to achieve lysis; endogenous in cells
T3 sequence (Q8TB52 1-745): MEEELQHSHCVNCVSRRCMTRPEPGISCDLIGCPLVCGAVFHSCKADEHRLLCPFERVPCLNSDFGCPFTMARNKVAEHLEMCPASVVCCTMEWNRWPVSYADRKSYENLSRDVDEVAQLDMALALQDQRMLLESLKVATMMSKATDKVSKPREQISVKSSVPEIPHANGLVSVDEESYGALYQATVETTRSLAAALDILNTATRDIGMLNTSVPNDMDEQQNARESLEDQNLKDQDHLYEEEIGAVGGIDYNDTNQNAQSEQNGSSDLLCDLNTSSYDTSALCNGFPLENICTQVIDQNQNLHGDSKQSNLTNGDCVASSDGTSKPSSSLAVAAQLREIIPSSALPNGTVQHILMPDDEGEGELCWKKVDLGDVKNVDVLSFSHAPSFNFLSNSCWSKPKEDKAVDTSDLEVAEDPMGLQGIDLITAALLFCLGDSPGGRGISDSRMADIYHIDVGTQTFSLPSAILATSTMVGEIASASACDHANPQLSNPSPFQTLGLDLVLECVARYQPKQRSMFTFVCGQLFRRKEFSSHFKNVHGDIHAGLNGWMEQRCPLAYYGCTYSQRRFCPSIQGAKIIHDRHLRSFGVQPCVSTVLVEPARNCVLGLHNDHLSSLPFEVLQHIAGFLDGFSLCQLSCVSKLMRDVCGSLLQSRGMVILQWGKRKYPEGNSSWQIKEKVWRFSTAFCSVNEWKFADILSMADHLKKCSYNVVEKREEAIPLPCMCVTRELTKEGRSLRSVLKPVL
Procedure, shortened: as §1

T2 sequence (Q00536 whole entry): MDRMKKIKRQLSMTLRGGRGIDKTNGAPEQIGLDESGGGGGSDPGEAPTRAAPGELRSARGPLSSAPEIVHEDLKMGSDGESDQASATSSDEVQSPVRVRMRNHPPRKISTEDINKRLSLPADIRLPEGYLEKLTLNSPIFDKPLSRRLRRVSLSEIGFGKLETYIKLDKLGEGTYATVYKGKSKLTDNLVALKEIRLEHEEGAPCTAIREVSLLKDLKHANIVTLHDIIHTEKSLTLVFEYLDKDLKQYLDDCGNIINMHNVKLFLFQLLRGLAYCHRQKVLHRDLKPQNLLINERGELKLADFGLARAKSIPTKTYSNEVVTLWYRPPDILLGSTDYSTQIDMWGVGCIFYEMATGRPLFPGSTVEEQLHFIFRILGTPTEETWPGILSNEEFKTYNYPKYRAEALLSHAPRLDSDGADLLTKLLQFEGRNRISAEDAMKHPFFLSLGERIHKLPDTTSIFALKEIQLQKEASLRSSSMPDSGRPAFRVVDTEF

Compound | Liganded [1] | Liganded [2] | Liganded ([3]; FBXO30 Res# 725, uniprot Q8TB52) | 100 ave ([1]; uniprot P53384) | 500 Max ([1]; uniprot P53384) | 500 ave ([1]; uniprot P53384) | 100 Max ([1]; uniprot P53384, in % (unit assumed)) | 100 Max ([2]; uniprot Q00536) | 100 ave ([2]; uniprot Q00536) | 500 ave ([2]; uniprot Q00536) | 500 Max ([2]; uniprot Q00536, in % (unit assumed)) | 100 Max ([3]; uniprot Q8TB52) | 100 ave ([3]; uniprot Q8TB52) | 500 ave ([3]; uniprot Q8TB52) | 500 Max ([3]; uniprot Q8TB52, unit assumed)
COc1ccc2c(c1)CCCN2C(=O)CCl [KB02] | YES | YES | YES |  |  |  |  |  |  |  |  |  |  |  | 
O=C(CCl)Nc1cc(C(F)(F)F)cc(C(F)(F)F)c1 [KBO3] | YES | YES |  | 7.3775 | 75.8 | 55.66 | 28.64 | 50.67 | 28.2075 | 79.225 | 80.44 | 10.4 | 4.3 | 25.0 | 39.5%

From patent US20200239530A1, “COMPOUNDS AND METHODS OF MODULATING PROTEIN DEGRADATION” (Vividion Therapeutics, Inc., priority 2017, published 2020)
